Each compound was assayed against human DGKζ (Homo sapiens (Human), UniProt Q13574) (assay: Human DGKζ kinase activity inhibition assay (ADP-Glo)). Details: in vitro human DGKζ kinase activity inhibition assay; read-out: IC50.
Type: biochemical
How it was run: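 ADP-Glo luminescence, reflecting ADP produced, served as the readout of activity. Full-length human DGKζ, FLAG-tagged at the C-terminus and insect-cell expressed, was used; lipid substrate mix was sonicated with octyl-β-D-glucopyranoside in 50 mM MOPS pH 7.4.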

Sequence of human DGKζ (Q13574 other isoform, or with tags, fused parts or gaps): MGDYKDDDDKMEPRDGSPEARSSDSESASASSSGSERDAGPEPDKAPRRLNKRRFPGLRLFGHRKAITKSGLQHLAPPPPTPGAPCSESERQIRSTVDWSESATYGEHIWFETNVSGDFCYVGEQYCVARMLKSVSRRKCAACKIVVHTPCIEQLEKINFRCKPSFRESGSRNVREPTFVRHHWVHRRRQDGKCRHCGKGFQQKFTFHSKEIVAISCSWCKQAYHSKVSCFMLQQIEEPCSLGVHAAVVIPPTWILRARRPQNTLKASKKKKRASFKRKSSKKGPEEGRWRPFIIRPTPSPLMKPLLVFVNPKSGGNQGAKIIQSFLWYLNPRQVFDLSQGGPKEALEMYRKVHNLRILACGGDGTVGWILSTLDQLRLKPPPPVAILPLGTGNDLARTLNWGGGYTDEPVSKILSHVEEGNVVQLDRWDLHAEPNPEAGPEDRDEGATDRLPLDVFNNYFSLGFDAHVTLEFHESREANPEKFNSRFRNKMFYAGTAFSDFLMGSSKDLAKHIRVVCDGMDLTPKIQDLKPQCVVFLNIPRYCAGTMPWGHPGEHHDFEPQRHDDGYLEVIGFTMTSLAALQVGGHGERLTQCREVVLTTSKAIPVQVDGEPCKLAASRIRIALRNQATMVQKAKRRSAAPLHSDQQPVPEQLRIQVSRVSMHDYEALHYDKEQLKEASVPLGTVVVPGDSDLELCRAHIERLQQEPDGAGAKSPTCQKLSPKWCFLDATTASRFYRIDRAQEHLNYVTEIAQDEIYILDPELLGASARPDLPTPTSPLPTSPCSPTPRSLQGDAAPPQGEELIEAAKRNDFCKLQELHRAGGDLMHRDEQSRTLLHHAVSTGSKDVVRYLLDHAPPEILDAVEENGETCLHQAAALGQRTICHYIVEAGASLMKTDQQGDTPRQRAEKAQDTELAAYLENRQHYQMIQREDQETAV

Row | IC50 [nM] | Compound
1 | 303 | CC(C(N)=O)N(c1ccc(F)c(F)c1)c1nc(N)c(C(=O)c2ccc(NC(=O)OCc3ccccc3)cc2)s1 (single isomer, unassigned) [Example 167.2, Benzyl N-[4-[4-amino-2-(N-(2-amino-1-methyl-2-oxo-ethyl)-3,4-difluoro-anilino)thiazole-5-carbonyl]phenyl]carbamate]
2 | 3 | CC(C(N)=O)N(c1ccc(F)cc1)c1nc(N)c(C(=O)c2ccc(NC(=O)OCc3ccccc3)cc2)s1 (single isomer, unassigned) [Example 169.1, Benzyl N-[4-[4-amino-2-(N-(2-amino-1-methyl-2-oxo-ethyl)-4-fluoro-anilino)thiazole-5-carbonyl]phenyl]carbamate]
3 | 859 | CC(C(N)=O)N(c1ccc(F)cc1)c1nc(N)c(C(=O)c2ccc(NC(=O)OCc3ccccc3)cc2)s1 (single isomer, unassigned) [Example 169.2, Benzyl N-[4-[4-amino-2-(N-(2-amino-1-methyl-2-oxo-ethyl)-4-fluoro-anilino)thiazole-5-carbonyl]phenyl]carbamate]
4 | 5 | CC(C(N)=O)N(c1ccc(F)cc1)c1nc(N)c(C(=O)c2ccc(OCc3ccccc3)cc2)s1 (single isomer, unassigned) [Example 170.1, 2-(N-[4-amino-5-(4-benzyloxybenzoyl)thiazol-2-yl]-4-fluoro-anilino)propanamide]
5 | 4890 | COc1ccc(C(=O)c2sc(N(c3ccc(Cl)c(F)c3)C(C)C(N)=O)nc2N)cn1 (single isomer, unassigned) [Example 172.2, 2-(N-[4-amino-5-(6-methoxypyridine-3-carbonyl)thiazol-2-yl]-4-chloro-3-fluoro-anilino)propanamide]
6 | 26 | COc1ccc(N(c2nc(N)c(C(=O)c3ccc(OC(F)F)cc3)s2)C(C)C(N)=O)cc1 (single isomer, unassigned) [Example 174.1, 2-(N-[4-amino-5-[4-(difluoromethoxy)benzoyl]thiazol-2-yl]-4-methoxy-anilino)propanamide]
7 | 3790 | COc1ccc(N(c2nc(N)c(C(=O)c3ccc(OC(F)F)cc3)s2)C(C)C(N)=O)cc1 (single isomer, unassigned) [Example 174.2, 2-(N-[4-amino-5-[4-(difluoromethoxy)benzoyl]thiazol-2-yl]-4-methoxy-anilino)propanamide]
8 | 84 | CC(C(N)=O)N(c1ccc(OCc2ccccc2)cc1)c1nc(N)c(C(=O)c2ccc(OC(F)F)cc2)s1 (single isomer, unassigned) [Example 182.1, 2-(N-[4-amino-5-[4-(difluoromethoxy)benzoyl]thiazol-2-yl]-4-benzyloxy-anilino)propanamide]
9 | 10500 | CC(C(N)=O)N(c1ccc(OCc2ccccc2)cc1)c1nc(N)c(C(=O)c2ccc(OC(F)F)cc2)s1 (single isomer, unassigned) [Example 182.2, 2-(N-[4-amino-5-[4-(difluoromethoxy)benzoyl]thiazol-2-yl]-4-benzyloxy-anilino)propanamide]
10 | 297 | CC(C(N)=O)N(c1ccc(F)c(F)c1)c1nc(N)c(C(=O)c2cccnc2)s1 (single isomer, unassigned) [Example 184.1, 2-(N-[4-amino-5-(pyridine-3-carbonyl)thiazol-2-yl]-3,4-difluoro-anilino)propanamide]
11 | > 20000 | CC(C(N)=O)N(c1ccc(F)c(F)c1)c1nc(N)c(C(=O)c2cccnc2)s1 (single isomer, unassigned) [Example 184.2, 2-(N-[4-amino-5-(pyridine-3-carbonyl)thiazol-2-yl]-3,4-difluoro-anilino)propanamide]
12 | 553 | Cc1cc(C(=O)c2sc(N(c3ccc(F)cc3)C(C)C(N)=O)nc2N)ccn1 (single isomer, unassigned) [Example 187.1, 2-(N-[4-amino-5-(2-methylpyridine-4-carbonyl)thiazol-2-yl]-4-fluoro-anilino)propanamide]
13 | > 20000 | Cc1cc(C(=O)c2sc(N(c3ccc(F)cc3)C(C)C(N)=O)nc2N)ccn1 (single isomer, unassigned) [Example 187.2, 2-(N-[4-amino-5-(2-methylpyridine-4-carbonyl)thiazol-2-yl]-4-fluoro-anilino)propanamide]
14 | 31 | CC(C(N)=O)N(c1ccc(F)cc1)c1nc(N)c(C(=O)c2ccc(O)cc2)s1 (single isomer, unassigned) [Example 286, 2-(N-[4-amino-5-(4-hydroxybenzoyl)thiazol-2-yl]-4-fluoro-anilino)propanamide (single enantiomer)]
15 | 178 | CC(C(N)=O)N(c1ccc(O)cc1)c1nc(N)c(C(=O)c2ccc(OC(F)F)cc2)s1 (single isomer, unassigned) [Example 291, 2-(N-[4-amino-5-[4-(difluoromethoxy)benzoyl]thiazol-2-yl]-4-hydroxy-anilino)propanamide (single enantiomer)]
16 | 1020 | CCOC(=O)COc1ccc(C(=O)c2sc(N(c3ccc(F)cc3)C(C)C(N)=O)nc2N)cc1 (single isomer, unassigned; enantiomer 1) [Example 81.1, ethyl 2-[4-[4-amino-2-(4-fluoro-N-[2-amino-1-methyl-2-oxo-ethyl]anilino)thiazole-5-carbonyl]phenoxy]acetate (enantiomer 1)]
17 | 18 | CC(C(N)=O)N(c1ccc(F)c(F)c1)c1nc(N)c(C(=O)c2ccc(O)cc2)s1 (single isomer, unassigned; enantiomer 1) [Example 287, 2-(N-[4-amino-5-(4-hydroxybenzoyl)thiazol-2-yl]-3,4-difluoro-anilino)propanamide (enantiomer 1)]
18 | 10 | CC(C(N)=O)N(c1ccc(Cl)c(F)c1)c1nc(N)c(C(=O)c2ccc(O)cc2)s1 (single isomer, unassigned; enantiomer 1) [Example 289, 2-(N-[4-amino-5-(4-hydroxybenzoyl)thiazol-2-yl]-4-chloro-3-fluoro-anilino)propanamide (enantiomer 1)]
19 | 10.1 | CCOC(=O)COc1ccc(C(=O)c2sc(N(c3ccc(F)cc3)C(C)C(N)=O)nc2N)cc1 (single isomer, unassigned; enantiomer 2) [Example 81.2, ethyl 2-[4-[4-amino-2-(4-fluoro-N-[2-amino-1-methyl-2-oxo-ethyl]anilino)thiazole-5-carbonyl]phenoxy]acetate (enantiomer 2)]
20 | 3440 | CC(C(N)=O)N(c1ccc(F)c(F)c1)c1nc(N)c(C(=O)c2ccc(O)cc2)s1 (single isomer, unassigned; enantiomer 2) [Example 288, 2-(N-[4-amino-5-(4-hydroxybenzoyl)thiazol-2-yl]-3,4-difluoro-anilino)propanamide (enantiomer 2)]
21 | 936 | CC(C(N)=O)N(c1ccc(Cl)c(F)c1)c1nc(N)c(C(=O)c2ccc(O)cc2)s1 (single isomer, unassigned; enantiomer 2) [Example 290, 2-(N-[4-amino-5-(4-hydroxybenzoyl)thiazol-2-yl]-4-chloro-3-fluoro-anilino)propanamide (enantiomer 2)]
22 | 2.1 | C[C@H](C(N)=O)N(c1ccc(F)c(F)c1)c1nc(N)c(C(=O)c2ccc(OC(F)F)cc2)s1 [Example 49.2, (R)-2-(N-[4-amino-5-[4-(difluoromethoxy)benzoyl]thiazol-2-yl]-3,4-difluoro-anilino)propanamide]
23 | 4 | COc1ccc(C(=O)c2sc(N(c3ccc(Cl)c(F)c3)[C@H](C)C(N)=O)nc2N)cc1 [Example 59.1, (R)-2-(N-[4-amino-5-(4-methoxybenzoyl)thiazol-2-yl]-4-chloro-3-fluoro-anilino)propanamide]
24 | 108 | C[C@H](C(N)=O)N(c1ccc(F)cc1)c1nc(N)c(C(=O)c2ccccc2)s1 [Example 61.2, (R)-2-(N-(4-amino-5-benzoyl-thiazol-2-yl)-4-fluoro-anilino)propanamide]

Row | Compound | IC50 [nM]
25 | COc1ccc(C(=O)c2sc(N(c3ccc(F)cc3)C(C)C(N)=O)nc2C)cc1 (single isomer, unassigned) [Example 176.2, 2-(4-fluoro-N-[5-(4-methoxybenzoyl)-4-methyl-thiazol-2-yl]anilino)propanamide] | 672
26 | CC(C(N)=O)N(c1ccc(F)cc1)c1nc(N)c(C(=O)c2ccc(N3CCC(C)(C#N)CC3)nc2)s1 (single isomer, unassigned; enantiomer 1) [Example 285.1, 2-(N-[4-amino-5-[6-(4-cyano-4-methyl-1-piperidyl)pyridine-3-carbonyl]thiazol-2-yl]-4-fluoro-anilino)propanamide (enantiomer 1)] | 34
27 | CC(C(N)=O)N(c1ccc(F)cc1)c1nc(N)c(C(=O)c2ccc(N3CCC(C)(C#N)CC3)nc2)s1 (single isomer, unassigned; enantiomer 2) [Example 285.2, 2-(N-[4-amino-5-[6-(4-cyano-4-methyl-1-piperidyl)pyridine-3-carbonyl]thiazol-2-yl]-4-fluoro-anilino)propanamide (enantiomer 2)] | 432

Source: US11964953B2, “Substituted aminothiazoles as DGKzeta inhibitors for immune activation” (Bayer Aktiengesellschaft, priority 2020, dated 2024)
